Legend:
Type in all cases: in vivo
[1] = tested on: Pseudoperonospora cubensis (downy mildew); test: Test 1 greenhouse foliar spray screen, downy mildew on squash; conditions: disease control rating, foliar spray on squash, 400 ppm (+++ at 100 ppm)
[2] = tested on: Pyricularia oryzae (rice blast); test: whole plant or invertebrate; conditions: disease control rating, foliar spray on rice, 400 ppm (+++ at 100 ppm)
corn rootworm = test: Mite/insect screen, CRW; conditions: percent mortality, read-out: CRW RESULTS %; for mortality at 12 ppm: CRW RATE 12.00 PPM; for mortality at 24 ppm: CRW RATE 24.00 PPM
How it was run: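 Compounds were dissolved in 50:50 acetone/alcohol containing sulfonate/nonionic emulsifier blends (23 g/L plus 13 g/L), then diluted with water to the test concentrations. Percent mortality was scored after standard exposure periods.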

[3] = tested on: Botrytis cinerea (gray mold); test: Test 1 greenhouse foliar spray screen, gray mold on grape berries; conditions: disease control rating, spray on grape berries, 400 ppm (+++ at 100 ppm)
[4] = tested on: Venturia inaequalis (apple scab); test: Test 1 greenhouse foliar spray screen, apple scab on apple seedling; conditions: disease control rating, foliar spray on apple seedling, 400 ppm (+++ at 100 ppm)
[5] = tested on: Cercospora beticola (leaf spot); test: Test 1 greenhouse foliar spray screen, leaf spot on sugar beet; conditions: disease control rating, foliar spray on sugar beet, 400 ppm (+++ at 100 ppm)
[6] = tested on: southern armyworm (Spodopetra eridania Cramer); test: Mite/insect screen, SAW; conditions: Spodoptera eridania, percent mortality, SAW, read-out: SAW RESULTS %; for mortality at 200 ppm: SM & MA RATE 200 PPM; for mortality at 400 ppm: SM & MA RATE 400 PPM
How it was run: (§1)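 Compounds dissolved in 50:50 acetone/alcohol containing sulfonate/nonionic emulsifier blends, then diluted with water to the indicated concentrations. Leaves sprayed on both surfaces to runoff at 10 psi and dried one hour. Percent mortality scored after standard exposure periods.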

[7] = tested on: Septoria tritici (leaf blotch); test: Test 1 greenhouse foliar spray screen, leaf blotch on wheat; conditions: disease control rating, foliar spray on wheat, 400 ppm (+++ at 100 ppm)
[8] = tested on: Puccinia recondita tritici (leaf rust); test: Test 1 greenhouse foliar spray screen, leaf rust on wheat; conditions: disease control rating, foliar spray on wheat, 400 ppm (+++ at 100 ppm)
[9] = tested on: melon aphids (Aphis gossypii Glover); test: Mite/insect screen, MA; conditions: Aphis gossypii, percent mortality, SAW, read-out: MA RESULTS %; for mortality at 200 ppm: SM & MA RATE 200 PPM; for mortality at 400 ppm: SM & MA RATE 400 PPM
How it was run: as §1

[10] = tested on: Erysiphe graminis tritici (powdery mildew); test: Test 1 greenhouse foliar spray screen, powdery mildew on wheat; conditions: disease control rating, foliar spray on wheat, 400 ppm (+++ at 100 ppm)
[11] = tested on: Twospotted spider mites (Tetranychus urticae Koch); test: Mite/insect screen, SM; conditions: Tetranychus urticae, percent mortality, SAW, read-out: SM RESULTS %; for mortality at 200 ppm: SM & MA RATE 200 PPM; for mortality at 400 ppm: SM & MA RATE 400 PPM
How it was run: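 Activity is expressed as percent mortality at the indicated spray concentrations. Plants are sprayed to runoff on upper and lower leaf surfaces with aqueous dilutions of an acetone/alcohol emulsifiable formulation, then dried for one hour.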

SMILES | DOWN MDEW [1] | RICE BLAST [2] | mortality at 12 ppm (corn rootworm) | GRAY MOLD [3] | APPL SCAB [4] | LEAF SPOT [5] | mortality at 200 ppm [6] | LEAF BLOT [7] | LEAF RUST [8] | mortality at 200 ppm [9] | POWD MDEW [10] | mortality at 200 ppm [11] | mortality at 24 ppm (corn rootworm) | mortality at 400 ppm [6] | mortality at 400 ppm [9] | mortality at 400 ppm [11]
Fc1cccc2c(NC3CC3c3ccccc3)ccnc12 (centres unmarked) [Example 123, 8-fluoro-N-(2-phenylcyclopropyl)-4-quinolinamine] | +++ (90-100% control at 100 ppm) | + (20-89% control at 400 ppm) | 0% | - (0-19% control at 400 ppm) | - (0-19% control at 400 ppm) | - (0-19% control at 400 ppm) | 0% | - (0-19% control at 400 ppm) | + (20-89% control at 400 ppm) | 0% | - (0-19% control at 400 ppm) | 0% | – | – | – | –
CC(=O)N(CCc1ccc(Cl)cc1)c1ccnc2cc(Cl)ccc12 [Example 124, N-[2-(4-chlorophenyl)ethyl]-N-(7-chloro-4-quinolinyl)acetamide] | - (0-19% control at 400 ppm) | + (20-89% control at 400 ppm) | 0% | - (0-19% control at 400 ppm) | - (0-19% control at 400 ppm) | - (0-19% control at 400 ppm) | 0% | - (0-19% control at 400 ppm) | + (20-89% control at 400 ppm) | 0% | +++ (90-100% control at 100 ppm) | 0% | 0% | 0% | 0% | 0%
CC(=O)N(CCc1cccc(C(F)(F)F)c1)c1ccnc2cc(Cl)ccc12 [Example 126, N-(7-chloro-4-quinolinyl)-N-[2-[3-(trifluoromethyl)phenyl]ethyl]acetamide] | + (20-89% control at 400 ppm) | +++ (90-100% control at 100 ppm) | 0% | - (0-19% control at 400 ppm) | - (0-19% control at 400 ppm) | - (0-19% control at 400 ppm) | 0% | + (20-89% control at 400 ppm) | + (20-89% control at 400 ppm) | 0% | ++ (90-100% control at 400 ppm) | 0% | 0% | 0% | 0% | 0%
CC(=O)N(CCc1ccc(C(C)C)cc1)c1ccnc2c(F)cccc12 [Example 129, N-[2-[4-(i-propyl)phenyl]ethyl]-N-(8-fluoro-4-quinolinyl)acetamide] | + (20-89% control at 400 ppm) | + (20-89% control at 400 ppm) | 0% | - (0-19% control at 400 ppm) | + (20-89% control at 400 ppm) | - (0-19% control at 400 ppm) | 0% | - (0-19% control at 400 ppm) | ++ (90-100% control at 400 ppm) | 0% | - (0-19% control at 400 ppm) | 0% | 0% | 0% | 0% | 0%
Fc1cccc2c(NCCCc3ccc(Cl)cc3)ccnc12 [Example 135, N-[3-(4-chlorophenyl)propyl]-8-fluoro-4-quinolinamine] | +++ (90-100% control at 100 ppm) | - (0-19% control at 400 ppm) | 0% | - (0-19% control at 400 ppm) | - (0-19% control at 400 ppm) | - (0-19% control at 400 ppm) | 0% | + (20-89% control at 400 ppm) | - (0-19% control at 400 ppm) | 0% | - (0-19% control at 400 ppm) | 0% | 0% | 0% | 0% | 0%
Clc1ccc(CCCNc2ccnc3cc(Cl)ccc23)cc1 [Example 136, N-[3-(4-chlorophenyl)propyl]-7-chloro-4-quinolinamine] | +++ (90-100% control at 100 ppm) | - (0-19% control at 400 ppm) | 0% | - (0-19% control at 400 ppm) | - (0-19% control at 400 ppm) | - (0-19% control at 400 ppm) | 0% | - (0-19% control at 400 ppm) | - (0-19% control at 400 ppm) | 0% | + (20-89% control at 400 ppm) | 0% | 0% | 0% | 0% | 0%
c1ccc(CCCNc2ccnc3ccccc23)cc1 [Example 139, N-(3-phenylpropyl)-4-quinolinamine] | ++ (90-100% control at 400 ppm) | + (20-89% control at 400 ppm) | 0% | - (0-19% control at 400 ppm) | - (0-19% control at 400 ppm) | - (0-19% control at 400 ppm) | 0% | - (0-19% control at 400 ppm) | + (20-89% control at 400 ppm) | 0% | + (20-89% control at 400 ppm) | 0% | – | – | – | –
Fc1cccc2c(NCCCCc3ccc(Cl)cc3)ccnc12 [Example 140, 8-fluoro-N-[4-(4-chlorophenyl)butyl]-4-quinolinamine] | +++ (90-100% control at 100 ppm) | +++ (90-100% control at 100 ppm) | 0% | - (0-19% control at 400 ppm) | + (20-89% control at 400 ppm) | +++ (90-100% control at 100 ppm) | 0% | +++ (90-100% control at 100 ppm) | +++ (90-100% control at 100 ppm) | 0% | + (20-89% control at 400 ppm) | 0% | 0% | 60% | 0% | 0%
Fc1cccc2c(NCCC3=CCCCC3)ccnc12 [Example 143, N-[2-(1-cyclohexenyl)ethyl]-8-fluoro-4-quinolinamine] | +++ (90-100% control at 100 ppm) | ++ (90-100% control at 400 ppm) | 0% | - (0-19% control at 400 ppm) | - (0-19% control at 400 ppm) | + (20-89% control at 400 ppm) | 0% | + (20-89% control at 400 ppm) | +++ (90-100% control at 100 ppm) | 0% | ++ (90-100% control at 400 ppm) | 0% | 0% | 0% | 0% | 0%
Cc1cc(C)c2nccc(NCCC3=CCCCC3)c2c1 [Example 144, N-[2-(1-cyclohexenyl)ethyl]-6,8-dimethyl-4-quinolinamine] | +++ (90-100% control at 100 ppm) | + (20-89% control at 400 ppm) | 0% | - (0-19% control at 400 ppm) | + (20-89% control at 400 ppm) | + (20-89% control at 400 ppm) | 0% | - (0-19% control at 400 ppm) | ++ (90-100% control at 400 ppm) | 0% | - (0-19% control at 400 ppm) | 0% | 0% | 0% | 0% | 0%
